The source of these data is ChEMBL document CHEMBL5500382, “Discovery of potent small molecule ubiquitin-specific protease 10 inhibitors with anti-hepatocellular carcinoma activity through regulating YAP expression” (Eur J Med Chem, 2024).

For one experiment, the system named is Bel-7402. Description: Antiproliferative activity against human Bel-7402 cells by CCK-8 method. On the technique in general: Tetrazolium dyes change colour on reduction, which living cells bring about.
One may read the IC50 as the concentration needed to halve the response being measured. The compound `Cc1ccc2c(=O)c(-c3nc(-c4ccccc4C)no3)cn(CC(=O)Nc3c(F)cccc3F)c2n1` registered a half-inhibitory concentration (IC50) of 22.7 µM.

The target of another experiment is T1, Ubiquitin carboxyl-terminal hydrolase 10 (Homo sapiens, UniProt Q14694). Nature of the experiment: Inhibition of human recombinant his tagged USP10 assessed as deubiquitinase activity.
T1 sequence (Q14694 whole entry): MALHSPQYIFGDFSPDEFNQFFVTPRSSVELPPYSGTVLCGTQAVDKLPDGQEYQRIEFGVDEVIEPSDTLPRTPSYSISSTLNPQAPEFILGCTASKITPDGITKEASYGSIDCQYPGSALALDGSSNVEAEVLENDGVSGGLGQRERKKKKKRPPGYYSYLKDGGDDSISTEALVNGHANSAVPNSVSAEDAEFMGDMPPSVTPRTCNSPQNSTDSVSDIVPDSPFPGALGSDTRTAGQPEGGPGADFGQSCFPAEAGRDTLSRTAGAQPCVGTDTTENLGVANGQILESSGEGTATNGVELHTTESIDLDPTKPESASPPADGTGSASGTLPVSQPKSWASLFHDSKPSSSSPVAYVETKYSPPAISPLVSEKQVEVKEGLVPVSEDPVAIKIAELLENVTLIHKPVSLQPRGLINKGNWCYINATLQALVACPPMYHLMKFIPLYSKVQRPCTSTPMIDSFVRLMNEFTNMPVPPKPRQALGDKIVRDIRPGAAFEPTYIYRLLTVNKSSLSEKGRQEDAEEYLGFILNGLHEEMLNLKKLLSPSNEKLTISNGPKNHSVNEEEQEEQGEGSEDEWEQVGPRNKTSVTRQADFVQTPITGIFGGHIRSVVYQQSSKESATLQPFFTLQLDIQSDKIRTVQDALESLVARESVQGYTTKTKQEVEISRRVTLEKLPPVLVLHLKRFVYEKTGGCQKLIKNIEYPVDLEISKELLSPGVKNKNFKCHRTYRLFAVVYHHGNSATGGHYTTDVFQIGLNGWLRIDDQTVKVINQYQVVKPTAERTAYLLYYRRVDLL
In the case of `CCOC(=O)c1cc([N+](=O)[O-])c(Oc2ccc(C(=O)OC)cc2)s1`, the IC50 is 8.3 µM.

In the next experiment the target is T2, Ubiquitin carboxyl-terminal hydrolase 13 (Homo sapiens, UniProt Q92995).
T2 sequence (Q92995 whole entry): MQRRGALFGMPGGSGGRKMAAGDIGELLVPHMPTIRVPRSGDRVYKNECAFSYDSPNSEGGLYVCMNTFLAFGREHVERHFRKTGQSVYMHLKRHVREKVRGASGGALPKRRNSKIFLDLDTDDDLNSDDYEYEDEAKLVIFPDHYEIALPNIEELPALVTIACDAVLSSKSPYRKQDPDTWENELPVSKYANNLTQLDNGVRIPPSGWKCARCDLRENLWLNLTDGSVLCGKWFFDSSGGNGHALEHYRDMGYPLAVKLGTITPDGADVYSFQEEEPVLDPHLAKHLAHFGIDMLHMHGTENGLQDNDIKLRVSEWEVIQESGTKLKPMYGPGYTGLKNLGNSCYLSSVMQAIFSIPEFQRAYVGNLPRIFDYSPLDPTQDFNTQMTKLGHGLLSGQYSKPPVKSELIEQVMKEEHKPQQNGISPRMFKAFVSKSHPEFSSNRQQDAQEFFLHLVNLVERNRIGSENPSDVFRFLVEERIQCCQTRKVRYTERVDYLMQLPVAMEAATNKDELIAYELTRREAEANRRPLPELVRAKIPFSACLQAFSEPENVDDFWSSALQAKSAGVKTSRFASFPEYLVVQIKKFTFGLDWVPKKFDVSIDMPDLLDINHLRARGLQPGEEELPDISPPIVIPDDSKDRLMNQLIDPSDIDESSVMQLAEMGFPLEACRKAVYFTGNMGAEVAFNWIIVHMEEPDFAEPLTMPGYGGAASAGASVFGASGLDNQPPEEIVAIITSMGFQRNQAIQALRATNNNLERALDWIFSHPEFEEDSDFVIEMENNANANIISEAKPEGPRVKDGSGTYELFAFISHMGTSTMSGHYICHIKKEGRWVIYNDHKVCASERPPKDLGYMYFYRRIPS
Nature of the experiment: Inhibition of USP13 (unknown origin).
Take `Fc1ccc(CNc2ncnc3ccc(F)cc23)cc1`: inhibition was half-maximal at 0.7 µM (IC50).

The target of a further experiment is T1, Ubiquitin carboxyl-terminal hydrolase 10. Description: Inhibition of human USP10 deubiquitinase activity using Ubiquitin 7-amino-4-carbamoylmethylcoumarin as substrate preincubated for 30 mins followed by substrate addition and measured after 30 mins by fluorometric assay.
Compound `Cc1ccccc1NC(=O)c1cn(CC(=O)N2CCC(N3CCN(C)CC3)CC2)c2cc(C(F)(F)F)ccc2c1=O` showed an IC50 greater than 30 µM.
On the same count and under the same terms, in the case of `COc1ccc([C@H](C)NC(=O)c2cn(CC(=O)NCCc3ccc(Cl)cc3)c3cc(C)ccc3c2=O)cc1` it was 21.2 µM.
The same measure, in the same setting: in the case of `Cc1ccccc1NC(=O)c1cn(CC(=O)NCCc2ccc(Cl)cc2)c2cc(N3CCOCC3)ccc2c1=O` it was 8.4 µM.
The same measure, in the same setting: the figure for `COCCOc1ccc(N2CCN(C(=O)Cn3cc(C(=O)Nc4ccccc4C)c(=O)c4ccc(C(F)(F)F)cc43)CC2)cc1` is greater than 30 µM; for `Cc1ccc2c(=O)c(-c3nc(-c4ccccc4C)no3)cn(CC(=O)Nc3c(F)cccc3F)c2n1` it is 11.1 µM.
The compound `C[C@H](NC(=O)c1cn(CC(=O)NCCc2ccc(Cl)cc2)c2cc(C(F)(F)F)ccc2c1=O)c1ccccc1` displayed an IC50 greater than 30 µM.
Still for that read-out and setting: the figure for `Cc1ccc2c(=O)c(-c3nnc(Cc4ccccc4)o3)cn(CC(=O)NCCc3ccc(Cl)cc3)c2c1` is 9 µM.
Consider `Cc1ccc2c(=O)c(-c3nc(-c4ccccc4C)no3)cn(CC(=O)NC3CCN(c4ccc(Cl)cc4)CC3)c2c1`, for which the half-inhibitory concentration (IC50) stood at 9.2 µM.
Same read-out and setting: in the case of `C[C@H](NC(=O)c1cn(CC(=O)NCCc2ccc(Cl)cc2)c2cc(F)ccc2c1=O)c1ccccc1` it was 11.9 µM.
Same read-out and setting: in the case of `Cc1ccc2c(=O)c(C(=O)N[C@@H](C)c3ccccc3)cn(CC(=O)N3CCN(c4ccc(Cl)cc4)CC3)c2c1` it was 10.9 µM; in that of `Cc1ccccc1NC(=O)c1cn(CC(=O)N2CC3(CCN(C(=O)OC(C)(C)C)CC3)C2)c2cc(C(F)(F)F)ccc2c1=O`, greater than 30 µM; in that of `Cc1ccc2c(=O)c(C(=O)N[C@@H](C)c3ccc(F)cc3)cn(CC(=O)NCCc3ccc(Cl)cc3)c2c1`, greater than 30 µM.
The same measure, in the same setting: in the case of `Cc1ccc2c(c1)c(=O)c(C(=O)Nc1ccccc1C)cn2CC(=O)NCCc1ccc(Cl)cc1` it was greater than 30 µM.
For the compound `Cc1ccc2c(=O)c(C(=O)NC3CCOCC3)cn(CC(=O)NCCc3ccc(Cl)cc3)c2n1`, the IC50 was greater than 30 µM.
Still for that read-out and setting: in the case of `Cc1ccccc1NC(=O)c1c[nH]c2cc(C(F)(F)F)ccc2c1=O` it was greater than 30 µM; in that of `Cc1ccc2c(=O)c(C(=O)N[C@@H](C)c3ccccc3)cn(CC(=O)NCCc3ccc(Cl)cc3)c2c1`, greater than 30 µM.
As for `Cc1ccccc1NC(=O)c1cn(CC(=O)NCCc2ccc(Cl)cc2)c2ccc(F)cc2c1=O`, the half-inhibitory concentration (IC50) is greater than 30 µM.
The same measure, in the same setting: in the case of `Cc1ccccc1NC(=O)c1cn(CC(=O)NC(C)CO)c2cc(C(F)(F)F)ccc2c1=O` (stereo not given) it was greater than 30 µM; in that of `Cc1ccccc1NC(=O)c1cn(CC(=O)NCCc2ccc(Cl)cc2)c2cc(N3CCCCC3)ccc2c1=O`, 10.6 µM; in that of `Cc1ccc2c(=O)c(C(=O)Nc3ccccc3C)cn(CC(=O)NCCc3ccc(Cl)cc3)c2n1`, 9.5 µM.
The same measure, in the same setting: the figure for `Cc1ccc2c(=O)c(C(=O)N3CCOCC3)cn(CC(=O)NCCc3ccc(Cl)cc3)c2n1` is greater than 30 µM.
Still for that read-out and setting: in the case of `COc1ccc2c(=O)c(-c3nc(-c4ccccc4C)no3)cn(CC(=O)NCCc3ccc(Cl)cc3)c2c1` it was 7.9 µM.
